In the experiment the test system is H3K4 trimethylation activity in Kmt2d+/βGeo MEFs. Put plainly: H3K4me3 indicator in murine embryonic fibroblasts (MEFs) from Kmt2d+/βGeo and Kmt2d+/+ mice. The experiment is classed as cell-based, mouse. To be noted: FIG. 18H. From the text:
An H3K4 trimethylation reporter was also created (FIG. 5B). This reporter is based on the H3 tail on one end and the TBP associated factor III (TAFIII) […] on the other end; the TAFIII […] only identifies and binds to trimethylated K4 on H3. When the H3K4 site gets trimethylated, the TAFIII […] can bind to the modified H3 tail and bring the two parts of the separated GFP in close proximity. The activity of the epigenetic modification system can be quantified through fluorescence.
Epigenetic reporter alleles were synthesized (OriGene, Rockville, Md.) using published sequences for component elements (Baird et al. (1999) Proc. Natl. Acad. Sci. 96:11241-6; Souslova et al. (2007) BMC Biotechnol. 7:37). Single nucleotide mutations were created using the QuickChange Lightening kit (Agilent Technologies Inc, Santa Clara, Calif.). For H4ac indicator, K5R, K8R, K12R, K16R and K20R (MUT indicator) were introduced. For H3K4me3 indicator, K4Q and D890A/W891A and M882A (three separate constructs) were introduced. […] FACS data were analyzed using FlowJo (Tree Star Inc, Ashland, Oreg.). […]
Epigenetic reporter systems were created that monitor either H4 acetylation or H3K4 trimethylation machinery activity in an effort to determine whether there is an ongoing activity deficiency in cells from Kmt2d^+/βGeo mice (FIG. 18A). Both reporter alleles encode halves of green fluorescent protein separated by a flexible linker region (Baird et al. (1999) Proc. Natl. Acad. Sci. 96: 11241-6) with a histone tail and a histone reader at the N- and C-termini, respectively. When the histone tail corresponding to either H4 or H3 is modified by acetylation or methylation, respectively, GFP structure and function are reconstituted, as detected by a fluorescent readout (FIG. 18B). The acetyl reporter protein quantifies the activity of the acetylation machinery (acetylation of H4 specifically at sites K5, K8, K12, and K16) and comprises an H4 tail (residues 1-30) on one end and a TATA binding protein (TBP)-associated factor II (TAFII) bromodomain on the other end (FIG. 18A). […]

On to `CC(C)[C@H](C(=O)Nc1ccc(C(=O)NO)cc1)c1ccccc1` [AR-42, (S)—N-hydroxy-4-(3-methyl-2-phenylbutanamido)benzamide], for which the “H3K4 trimethylation activity in Kmt2d+/βGeo cells upon treatment” value (Kmt2d+/βGeo MEFs, 22A, 23) is reported as “enhanced”. Also, under “both genotypes (Kmt2d+/+ and Kmt2d+/βGeo)”, the “H3K4me3 indicator activity in MEFs” value is on record as “dose-dependent response”.

The values above are taken from US11357748B2, “Methods for treating mendelian disorders of the epigenetic machinery” (THE JOHNS HOPKINS UNIVERSITY, priority 2014, dated 2022).
